Here are results for eleven molecules from patent publication US7354955B2, “(2S)-amino(phenyl)acetic acid and derivatives as α2δ voltage-gated calcium channel ligands” (Abbott Laboratories, priority 2004, dated 2008).

Read-outs that look alike come from different tables or passages of the source.

In one experiment the test system is gabapentin binding site. The following applies: cited from earlier work.
Experiment [1] relates to mechanical allodynia in rats that had undergone spinal nerve ligation. The experiment in a line: Analgesic effect: mechanical allodynia (von Frey) after L5/L6 spinal nerve ligation. The following applies: oral, 60 minutes before von Frey testing; percentage of maximal protective effect relative to vehicle; Sprague Dawley rats.
Setting [2] is: anti-convulsant drugs, background statement.

With `COc1ccc(CCN(C)CCCC(C#N)(c2ccc(OC)c(OC)c2)C(C)C)cc1OC` (centres unmarked) [verapamil], the “interaction with the gabapentin binding site” value (“interaction” for short) in the experiment on gabapentin binding site is given as “do not interact”. `C[C@]12N[C@H](Cc3ccccc31)c1ccccc12` [MK801]: the “interaction” value in the experiment on gabapentin binding site is given as “do not interact”. With `CN1C(=O)CN=C(c2ccccc2)c2cc(Cl)ccc21` [diazepam], the “competition for gabapentin binding” value in the experiment with gabapentin binding site is listed as “do not compete”. As to ryanodine, in the experiment on gabapentin binding site, the “interaction” value is “do not interact”. Molecule `NCC1(CC(=O)O)CCCCC1` [Gabapentin] registered an EC50 in experiment [1] of 160 µmol/kg.

For `O=C1NC(=O)C(c2ccccc2)(c2ccccc2)N1` [phenytoin], in the experiment with gabapentin binding site (setting [2]), the “competition for gabapentin binding” value was “do not compete”. For `Cn1c(=O)c2c(ncn2C)n(C)c1=O` [caffeine], the “interaction” value in the experiment with gabapentin binding site (ligands for other calcium channel subtypes, background statement) was “do not interact”. Turning to `CCC1(c2ccccc2)C(=O)NC(=O)NC1=O` [phenobarbitone], the “competition for gabapentin binding” value with gabapentin binding site is recorded as “do not compete”. Consider `COc1cc(CNC(=O)CCCC/C=C/C(C)C)ccc1O` [capsaisin], for which, in the experiment on gabapentin binding site, the “interaction” value was “do not interact”. In the case of `NC(=O)N1c2ccccc2C=Cc2ccccc21` [carbamazepine], the “competition for gabapentin binding” value with gabapentin binding site (setting [2]) is given as “do not compete”. Molecule `N[C@H](C(=O)O)c1ccccc1` [(2S)-amino(phenyl)acetic acid] showed an EC50 in experiment [1] of 50 µmol/kg.
